Test results taken from patent publication US20240043386A1, “Modulators of the Cystic Fibrosis Transmembrane Conductance Regulator Protein and Methods of Use” (AbbVie Global Enterprises Ltd., priority 2021, published 2024).
Where two headings read alike, the source gives them in different places.

Assays:
[1] = biological target: T1, F508del/F508del CFTR (Homo sapiens, UniProt P13569, DEL508-508); assay: Trans-Epithelial Current Clamp (TECC) assay using primary human bronchial epithelial cells; assay type: cell-based; settings: for Emax (% Dual): maximum percent activity relative to positive control (co-corrector 0.15 μM + potentiator 0.45 μM = 100%), primary hBE cells F508del/F508del; for EC50: primary hBE cells homozygous F508del/F508del, test C2 corrector with co-corrector and potentiator, 18-24 hours at 37° C., equivalent CFTR current (IEQ)/AUC
T1 construct: cells isolated from CF patients with the homozygous mutation; endogenous in cells; host or cells: primary human bronchial epithelial (hBE) cells from CF patients homozygous for F508del
T1 sequence (P13569 with tags, fused parts or gaps DEL508-508): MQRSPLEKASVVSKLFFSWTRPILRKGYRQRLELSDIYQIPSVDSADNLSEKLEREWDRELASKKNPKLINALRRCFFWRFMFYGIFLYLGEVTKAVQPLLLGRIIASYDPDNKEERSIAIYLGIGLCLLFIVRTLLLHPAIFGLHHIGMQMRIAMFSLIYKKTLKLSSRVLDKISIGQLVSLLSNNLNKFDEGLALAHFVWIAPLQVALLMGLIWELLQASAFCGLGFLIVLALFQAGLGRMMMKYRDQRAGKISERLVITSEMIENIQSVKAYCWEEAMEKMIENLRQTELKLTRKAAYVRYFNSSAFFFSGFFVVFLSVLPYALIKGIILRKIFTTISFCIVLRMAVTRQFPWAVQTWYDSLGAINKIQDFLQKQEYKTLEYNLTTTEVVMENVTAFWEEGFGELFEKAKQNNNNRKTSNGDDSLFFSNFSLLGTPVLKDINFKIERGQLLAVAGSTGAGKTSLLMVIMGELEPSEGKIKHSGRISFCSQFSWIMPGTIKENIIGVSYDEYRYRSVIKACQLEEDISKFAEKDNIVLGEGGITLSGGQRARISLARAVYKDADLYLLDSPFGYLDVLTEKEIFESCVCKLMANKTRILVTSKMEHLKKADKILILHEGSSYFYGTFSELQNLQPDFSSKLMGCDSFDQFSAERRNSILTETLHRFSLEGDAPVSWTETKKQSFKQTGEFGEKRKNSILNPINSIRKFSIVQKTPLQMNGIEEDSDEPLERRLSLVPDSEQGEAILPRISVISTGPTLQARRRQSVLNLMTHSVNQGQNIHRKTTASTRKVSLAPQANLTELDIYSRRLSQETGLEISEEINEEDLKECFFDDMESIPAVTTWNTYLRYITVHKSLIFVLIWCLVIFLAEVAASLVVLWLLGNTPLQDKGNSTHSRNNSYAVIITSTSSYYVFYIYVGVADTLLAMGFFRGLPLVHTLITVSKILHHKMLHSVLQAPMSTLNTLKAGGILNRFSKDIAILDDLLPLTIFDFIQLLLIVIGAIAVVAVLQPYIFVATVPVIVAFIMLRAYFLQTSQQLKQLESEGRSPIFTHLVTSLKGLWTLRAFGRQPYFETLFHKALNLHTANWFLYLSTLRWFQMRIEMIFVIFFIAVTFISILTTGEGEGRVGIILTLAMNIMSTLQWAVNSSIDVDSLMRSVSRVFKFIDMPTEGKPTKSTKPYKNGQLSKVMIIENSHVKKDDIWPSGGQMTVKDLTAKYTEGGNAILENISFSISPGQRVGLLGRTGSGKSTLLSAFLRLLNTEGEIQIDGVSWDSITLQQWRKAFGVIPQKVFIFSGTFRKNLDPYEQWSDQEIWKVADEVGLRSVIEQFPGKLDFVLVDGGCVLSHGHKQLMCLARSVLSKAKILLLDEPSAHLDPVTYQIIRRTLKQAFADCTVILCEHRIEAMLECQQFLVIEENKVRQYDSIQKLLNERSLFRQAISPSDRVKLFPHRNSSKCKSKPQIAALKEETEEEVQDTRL
Source text: A cell-based assay was developed using the primary human bronchial epithelial cells (hBE cells) with F508del/F508del CFTR and other mutations.
Primary human bronchial epithelial (hBE) cells from CFTR patients with homozygous F508del/F508del mutation were expanded from 1×10^6 to 250×10^6 cells (Neuberger, T et al., 2011, Methods Mol Biol 741:39-54). For this purpose, cells isolated from CF patients with the homozygous mutation, procured from the CF center tissue procurement and cell culture core at the Marsico Lung Institute at UNC (Randell), the Cystic Fibrosis translational research center at McGill University (University), and Rosalind Franklin University Medical School (RFUMS) were seeded onto 24 well Corning (Cat #3378) filter plates that were coated with 3T3 conditioned media and grown at an air-liquid interface for 35 days using an Ultroser® G supplemented differentiation media. All the primary human bronchial epithelial cells were collected in accordance with institutional review board approval protocols. Apical surface mucus was removed 72 hours before the experiment by incubating the apical surface of the cells for 30 minutes with 3 mM dithiothreitol (DTT) prepared in Dulbecco's phosphate buffered saline (DPBS) with Ca^2+ and Mg^2+. This was followed with aspiration of the mucus from the apical surface along with DPBS. The apical surface was re-washed with phosphate buffered saline (PBS) incubated for 30 minutes followed with aspiration. These hBE cells were then incubated with the desired concentrations of the test C2 corrector compounds along with co-corrector, 4-[(2R,4R)-4-({[1-(2,2-difluoro-1,3-benzodioxol-5-yl)cyclopropyl]carbonyl}amino)-7-(difluoromethoxy)-3,4-dihydro-2H-chromen-2-yl]benzoic acid and potentiator, (5-{3-amino-5-[4-(trifluoromethoxy)benzene-1-sulfonyl]pyridin-2-yl}-1,3,4-oxadiazol-2-yl)methanol, for 18-24 hours at 37° C., 5% CO2. The desired concentrations of the correctors and potentiator compounds were prepared from the 10 mM stocks in differentiation media and were always applied on the basolateral side of the epithelial cells. We also used an assay format where a fixed concentration of potentiator was added chronically along with the corrector compounds. This chronic treatment with the potentiator helped eliminate any interaction that might happen with CFTR modulators (correctors and potentiators) and thereby determined the true efficacy of the modulator combinations reflective of clinical relevance.
The assay uses a Transepithelial Current Clamp (TECC) (Vu, C B et al., 2017; J Med Chem 60:458-473) instrument that can measure the functionality of the mutated channel by measuring the equivalent CFTR current (IEQ) generated by the polarized primary epithelial cells. We used a TECC-24 with a 24-channel electrode manifold allowing for the simultaneous measurement of the transepithelial voltage, VT, and transepithelial resistance, RT, under current clamp conditions, from 24 filters using a 24 well Costar filter plate. The design of the filters in the 24 well filter plates was exactly the same as the design of an individual Transwell filter used in the classical Ussing Chamber with a surface area of 0.33 cm^2. Each measured VT values were corrected for the electrode offset potential measured using buffer alone in a separate plate, and each measured RT values were then corrected for the combined solution series and empty filter resistances. The corrected VT and RT values were then used to calculate the equivalent current, IEQ using Ohm's law (IEQ=VT/RT). The area under the curve (AUC) for the time period between the forskolin peak IEQ response and at the time of bumetanide addition was also calculated using a one-third trapezoid method, in addition to calculating the IEQ. The assay was run in a 24-well format and all 24-wells were measured at the same time point giving a higher throughput for this assay. […]

[2] = biological target: T2, F508delCFTR (Homo sapiens, UniProt P13569, DEL508-508); assay: Cell Surface Expression-Horse Radish Peroxidase (CSE-HRP) assay in CFBE41o-F508delCFTR-HRP cells; assay type: cell-based; settings: for EC50: CFBE41o-F508delCFTR-HRP cells, 18-24 hours at 33° C., luminescence; for Maximum % activity (without co-corrector): normalized to on-plate positive control corrector (2 μM)
T2 construct: expressed in transfected cells; host or cells: CFBE41o- human lung-derived epithelial cell line, doxycycline-inducible expression
T2 sequence (P13569 with tags, fused parts or gaps DEL508-508): as above
Method: A cellular assay for measuring the F508delCFTR cell surface expression after correction with test compounds either without or with a co-corrector (2 μM of 3-[(2R,4R)-4-({[1-(2,2-difluoro-1,3-benzodioxol-5-yl)cyclopropyl]carbonyl}amino)-7-methoxy-3,4-dihydro-2H-chromen-2-yl]benzoic acid), was developed in human lung derived epithelial cell line (CFBE4lo-) (Veit G et al, (2012) Mol Biol Cell. 23(21): 4188-4202). The development was achieved by expressing the F508delCFTR mutation along with a horseradish peroxidase (HRP) in the fourth exofacial loop, and then measuring the HRP activity using luminescence readout from these cells, CFBE4lo-F508delCFTR-HRP, that were incubated overnight with the test corrector compounds, either without or with the co-corrector. For this primary assay, the CFBE4lo-F508delCFTR-HRP cells were plated in 384-well plates (Greiner Bio-one; Cat 781080) at 4,000 cells/well along with 0.5 μg/mL doxycycline to induce the F508delCFTR-RP expression and further incubated at 37° C., 5% CO2 for 68-72 hours. The test compounds were then added either without or with a co-corrector at the required concentrations and further incubated for 18-24 hours at 33° C. The highest concentration tested was 20 μM or 30 μM (GI-1 to GIII-36) with an 8-point concentration response curve using a 3-fold dilution in both the test compound without or with the co-corrector. Three replicate plates were run to determine one EC50. All plates contained negative controls (dimethyl sulfoxide, DMSO) and positive control (2 μM or 3 μM (GI-1 to GIII-36) of 3-[(2R,4R)-4-({[1-(2,2-difluoro-1,3-benzodioxol-5-yl)cyclopropyl]carbonyl}amino)-7-methoxy-3,4-dihydro-2H-chromen-2-yl]benzoic acid) as well as on-plate concentration response of the positive control. Post incubation, the plates were washed 5× times with Dulbecco's phosphate buffered saline (DPBS), followed by the addition of the HRP substrate, luminol (50 μL), and measuring the HRP activity using luminescence readout on EnVision® Multilabel Plate Reader (Perkin Elmer; product number 2104-0010). The raw counts from the experiment were analyzed using Accelrys® Assay Explorer v3.3.
Z′ greater than 0.5 was used as passing quality control criteria for the plates. The Z′ is defined as:
1−[3*SDPositive Control+3*SDNegative Control/Absolute (MeanPositive Control−MeanNegative Control)]
The % activity measured at each of the 8 test concentrations of the test compound added either without or with a co-corrector (2 μM or 3 μM (GI-1 to GIII-36) of 3-[(2R,4R)-4-({[1-(2,2-difluoro-1,3-benzodioxol-5-yl)cyclopropyl]carbonyl}amino)-7-methoxy-3,4-dihydro-2H-chromen-2-yl]benzoic acid) was normalized to the on-plate positive control using the following formulae:
% activity (Test compound without co-corrector)=[(test compound without co-corrector response−DMSO response)/(positive control response−DMSO response)]*100
% activity (Test compound with co-corrector)=[(test compound with co-corrector response−DMSO response)/(positive control response−DMSO response)]*100
The maximum % activity achieved for the test compound either without or with a co-corrector at any tested concentration is presented in Table 3 along with the respective EC50's calculated using the following general sigmoidal curve with variable Hill slope equation (described as Model 42 in the Accelrys® Assay Explorer v3.3 software):
General sigmoidal curve with concentration, response, top, bottom, EC50 and Hill slope. This model describes a sigmoidal curve with an adjustable baseline, a. The equation can be used to fit curves where response is either increasing or decreasing with respect to the independent variable, “x”.

[3] = with co-corrector (2 μM), read-out: EC50 (with co-corrector)
[4] = without co-corrector, read-out: EC50 (without co-corrector)

| Emax (% Dual) [1] [% Dual] | EC50 [1] [µM] | EC50 [2, 3] [µM] | EC50 [2, 4] [µM] | Maximum % activity (without co-corrector) ([2]; without co-corrector) [%] | Structure (SMILES) |
| --- | --- | --- | --- | --- | --- |
| 389 | 0.005 | 1.43 | 2.84 |  | COc1ccc(C)cc1[C@@]1(C(=O)NS(=O)(=O)c2cccc3nc(C)ccc23)C[C@H]1c1ccccc1 (racemic) [Example 1, rac-(1r,2s)-1-(2-methoxy-5-methylphenyl)-N-(2-methylquinoline-5-sulfonyl)-2-phenylcyclopropane-1-carboxamide] |
| 417 | 0.0015 | 0.421 | 0.489 | 944 | COc1ccc(C)cc1[C@@]1(C(=O)NS(=O)(=O)c2cccc3nc(C)ccc23)C[C@H]1c1ccc(C)cc1 (racemic) [Example 4, rac-(1r,2s)-1-(2-methoxy-5-methylphenyl)-2-(4-methylphenyl)-N-(2-methylquinoline-5-sulfonyl)cyclopropane-1-carboxamide] |
| 253 | 0.0035 | 0.187 | 0.306 | 741 | COc1ccc(C)cc1C1(C(=O)NS(=O)(=O)c2cccc3nc(C)ccc23)CC1c1ccc(C(F)(F)F)cc1 (racemic) [Example 5, rac-(1r,2s)-1-(2-methoxy-5-methylphenyl)-N-(2-methylquinoline-5-sulfonyl)-2-[4-(trifluoromethyl)phenyl]cyclopropane-1-carboxamide] |
| 429 | 0.0014 | 0.504 | 0.844 |  | COc1ccc(C)cc1[C@@]1(C(=O)NS(=O)(=O)c2cccc3nc(C)ccc23)C[C@H]1c1cccc(F)c1 (racemic) [Example 8, rac-(1r,2s)-2-(3-fluorophenyl)-1-(2-methoxy-5-methylphenyl)-N-(2-methylquinoline-5-sulfonyl)cyclopropane-1-carboxamide] |
| 381 | 0.0011 |  | 1.67 |  | COc1ccc([C@@H]2C[C@]2(C(=O)NS(=O)(=O)c2cccc3nc(C)ccc23)c2cc(C)ccc2OC)cc1 (racemic) [Example 9, rac-(1r,2s)-1-(2-methoxy-5-methylphenyl)-2-(4-methoxyphenyl)-N-(2-methylquinoline-5-sulfonyl)cyclopropane-1-carboxamide] |
| 407 | 0.00051 | 0.327 | 0.479 |  | COc1ccc(C)cc1[C@]1(C(=O)NS(=O)(=O)c2cccc3nc(C)ccc23)C[C@@H]1c1cccc(C(F)(F)F)c1 (racemic) [Example 12, rac-(1r,2s)-1-(2-methoxy-5-methylphenyl)-N-(2-methylquinoline-5-sulfonyl)-2-[3-(trifluoromethyl)phenyl]cyclopropane-1-carboxamide] |
| 308 | 0.00084 | 0.698 | 1.01 |  | COc1cccc([C@@H]2C[C@]2(C(=O)NS(=O)(=O)c2cccc3nc(C)ccc23)c2cc(C)ccc2OC)c1 (racemic) [Example 15, rac-(1r,2s)-1-(2-methoxy-5-methylphenyl)-2-(3-methoxyphenyl)-N-(2-methylquinoline-5-sulfonyl)cyclopropane-1-carboxamide] |
| 268 | 0.009 | 0.844 | 0.929 |  | COc1ccc(C)cc1[C@@]1(C(=O)NS(=O)(=O)c2cccc3nc(C)ccc23)C[C@H]1c1ccccc1F (racemic) [Example 22, rac-(1r,2r)-2-(2-fluorophenyl)-1-(2-methoxy-5-methylphenyl)-N-(2-methylquinoline-5-sulfonyl)cyclopropane-1-carboxamide] |
| 241 | 0.0077 | 0.164 | 0.273 | 666 | COc1ccc(C)cc1[C@]1(C(=O)NS(=O)(=O)c2cccc3nc(C)ccc23)C[C@@H]1c1ccccc1C(F)(F)F (racemic) [Example 29, rac-(1r,2s)-1-(2-methoxy-5-methylphenyl)-N-(2-methylquinoline-5-sulfonyl)-2-[2-(trifluoromethyl)phenyl]cyclopropane-1-carboxamide] |
| 331 | 0.0479 | 1.22 | 1.71 | 582 | COc1ccc(C)cc1[C@@]1(C(=O)NS(=O)(=O)c2cccc3nc(C)ccc23)C[C@H]1c1cncc(C)n1 (racemic) [Example 35, rac-(1r,2r)-1-(2-methoxy-5-methylphenyl)-2-(6-methylpyrazin-2-yl)-N-(2-methylquinoline-5-sulfonyl)cyclopropane-1-carboxamide] |
